Data on 7 molecules can be found in US11986526B2, “Liquid protein formulations containing 4-ethyl-4-methylmorpholinium methylcarbonate (EMMC)” (Eagle Biologics, Inc., priority 2013, dated 2024).

Values joined by “and” are separate entries in the source; they are usually repeats but may differ in a detail not shown here. Equal values may be shown once.

The test system of series [1] is respiratory syncytial virus infection. The conditions noted are these: two Phase III clinical trials, pediatric population; cited from earlier work.
For series [2], the system named is aqueous solutions of HERCEPTIN®. Description: Viscosity of concentrated aqueous solutions of HERCEPTIN with ionic liquids (mVROC microfluidic viscometer). To be noted: for Viscosity: 25° C., pH 7. Type of series: physicochemical. An excerpt: The protein was formulated either with phosphate buffer or with various viscosity-reducing ionic liquids at concentrations in the table listed below.

For series [3], the system named is aqueous solutions of biosimilar AVASTIN®. Description: Viscosity of concentrated aqueous solutions of biosimilar AVASTIN with ionic liquids (mVROC microfluidic viscometer). To be noted: 25° C., pH 7. The series is classed as physicochemical.
Method: (§1) All viscosities of well-mixed aqueous mAb solutions were measured using either a mVROC microfluidic viscometer (RheoSense) or a DV2T cone and plate viscometer (Brookfield; “C & P”) after a 5 minute equilibration at 25 °C (unless otherwise indicated). The mVROC viscometer was equipped with an “A” or “B” chip, each manufactured with a 50 micron channel. Typically, 0.10 mL of protein solution was back-loaded into a gastight microlab instrument syringe (Hamilton; 100 μL), affixed to the chip, and measured at multiple flow rates, approximately 20%, 40%, and 60% of the maximum pressure for each chip. […] An average absolute viscosity and standard deviation was then calculated from at least these three measurements. The C & P viscometer was equipped with a CPE40 or CPE52 spindle (cone angle of 0.8° and 3.0°, respectively) and 0.50 mL samples were measured at multiple shear rates between 2 and 400 s^−1. […] An extrapolated zero-shear viscosity was then determined from a plot of dynamic viscosity versus shear rate for the samples measured on a DV2T cone and plate viscometer. The extrapolated zero-shear viscosities reported are the average and standard deviation of at least three measurements.
(§2) First, Polysorbate 20 was removed using DETERGENT-OUT® TWEEN Medi Columns (G-Biosciences). […] The dried protein cakes, containing protein and buffer salts or viscosity-reducing ionic liquid, were reconstituted to a final volume of approximately 0.10-1.30 mL. […] Then, an appropriate amount of viscosity-reducing ionic liquid solution (pH 7.0) was added to each aliquot such that upon reconstitution with water, the final excipient concentration was 0.1-0.5 M. The protein solutions were then freeze-dried. The dried protein cakes, containing protein and viscosity-reducing ionic liquid (and a negligible amount of buffer salts) were reconstituted to a final volume of approximately 0.1 mL and viscosity-reducing ionic liquid concentration as indicated in the tables below. The final concentration of mAb in solution was determined by light absorbance at 280 nm using an experimentally determined extinction coefficient of 1.7 L/g·cm and viscosities reported were measured on a RheoSense mVROC microfluidic viscometer.
The subject of series [4] is aqueous solutions of TYSABRI®. Description: Viscosity of concentrated aqueous solutions of TYSABRI with excipients (mVROC microfluidic viscometer). The series is classed as physicochemical. To be noted: for Viscosity: 25° C., pH 7.
Method: as §1
The dried protein cakes, containing protein and buffer salts or viscosity-reducing ionic liquid, were reconstituted to a final volume of approximately 0.10-1.30 mL. […] Then, an appropriate amount of viscosity-reducing ionic liquid solution (pH 7.0) was added to each aliquot such that upon reconstitution with water, the final excipient concentration was 0.1-0.5 M. The protein solutions were then freeze-dried. The dried protein cakes, containing protein and viscosity-reducing ionic liquid (and a negligible amount of buffer salts) were reconstituted to a final volume of approximately 0.1 mL and viscosity-reducing ionic liquid concentration as indicated in the tables below. The final concentration of mAb in solution was determined by light absorbance at 280 nm using an experimentally determined extinction coefficient of 1.7 L/g·cm and viscosities reported were measured on a RheoSense mVROC microfluidic viscometer.
(§3) Viscosities were measured using a RheoSense mVROC microfluidic viscometer equipped with an “A” or “B” chip.
The conditions of series [5]: studies evaluating long-term clinical outcomes; cited from earlier work.
Series [6] relates to aqueous solutions of biosimilar RITUXAN®. Briefly: Viscosity of concentrated aqueous solutions of biosimilar RITUXAN with BIM (mVROC microfluidic viscometer). Type of series: physicochemical. To be noted: 25° C., pH 7.
The test system of series [7] is aqueous solutions of REMICADE®. Description: Viscosity of concentrated aqueous solutions of REMICADE with and without BIM (mVROC microfluidic viscometer). Type of series: physicochemical. Here is the method:
A commercially-obtained biosimilar AVASTIN® containing pharmaceutical excipients (Polysorbate 20, phosphate and citrate buffers, mannitol, and NaCl) was purified. […] For samples containing 4-ethyl-4-methylmorpholinium methyl carbonate (EMMC), protein was thoroughly buffer exchanged into 2 mM PB (pH 7.0). For samples buffer exchanged into 20 mM PB (PB control samples) or 20 mM viscosity-reducing ionic liquid, the collected protein solution was freeze-dried. […] Samples buffer exchanged into 2 mM PB were first aliquoted.

In series [8] the test system is aqueous solutions of VECTIBIX®. Briefly: Viscosity of concentrated aqueous solutions of VECTIBIX with and without BIM (mVROC microfluidic viscometer). The series is classed as physicochemical. To be noted: 0.50M BIM, 25° C., pH 7.
For series [9], the system named is aqueous solutions of biosimilar ERBITUX®. Briefly: Viscosity of concentrated aqueous solutions of biosimilar ERBITUX at various BIM concentrations (mVROC microfluidic viscometer). The series is classed as physicochemical. The conditions noted are these: for Viscosity: 25° C., pH 7.
Method: All viscosities of well-mixed aqueous mAb solutions were measured using either a mVROC microfluidic viscometer (RheoSense) or a DV2T cone and plate viscometer (Brookfield; “C & P”) after a 5 minute equilibration at 25 °C (unless otherwise indicated). The mVROC viscometer was equipped with an “A” or “B” chip, each manufactured with a 50 micron channel. Typically, 0.10 mL of protein solution was back-loaded into a gastight microlab instrument syringe (Hamilton; 100 μL), affixed to the chip, and measured at multiple flow rates, approximately 20%, 40%, and 60% of the maximum pressure for each chip. […] An average absolute viscosity and standard deviation was then calculated from at least these three measurements. The C & P viscometer was equipped with a CPE40 or CPE52 spindle (cone angle of 0.8° and 3.0°, respectively) and 0.50 mL samples were measured at multiple shear rates between 2 and 400 s^−1. Specifically, samples were measured for 30 seconds each at 22.58, 24.38, 26.25, 28.13, 30, 31.88, 45, 67.5, 90, 112.5, 135, 157.5, 180, 202.5, 247, 270, 292.5, 315, 337.5, 360, 382, 400 s^−1, starting at a shear rate that gave at least 10% torque, and continuing until instrument torque reached 100%. An extrapolated zero-shear viscosity was then determined from a plot of dynamic viscosity versus shear rate for the samples measured on a DV2T cone and plate viscometer. The extrapolated zero-shear viscosities reported are the average and standard deviation of at least three measurements.
as §2, §3
The next series deals with Sprague-Dawley rats. Briefly: Subcutaneous injection toxicity and irritation study (Draize evaluation scores, microscopic examination of injection sites). The series is classed as in vivo, rat. The procedure: Clinical observations were recorded for any pharmaco-toxicological signs at pre-dose, immediately post-dose, at 1 and 4 hours (±15 minutes) post-dose, and daily thereafter. Irritation, if any, at injection sites was scored using the Draize evaluation scores pre-dose, immediately post-dose, at 1 hour (±15 minutes) post dose, and prior to sacrifice.

Where [10] appears, read: [IL] 0.5 M, [Protein] 230 mg/mL.

On to “palivizumab: humanized mAb against an epitope in the A antigenic site of the F protein of respiratory syncytial virus”, for which, in series [1], the “Reduction of the risk of hospitalization due to respiratory syncytial virus infection” value was 55% and 45%.

For `CCCCn1cc[n+](C)c1.CS(=O)(=O)[O-]` [BMI Mes, 1-butyl-3-methylimidazolium methanesulfonate], the Viscosity in [2] ([IL] 0.40 M, [Protein] 227 mg/mL) is recorded as 47.8 ± 1.0 cP; in [3] ([IL] 0.4 M, [Protein] 214 mg/mL) it was 36.3 ± 0.2 cP; in series [3] ([IL] 0.4 M, [Protein] 229 mg/mL), 69.2 ± 5.2 cP; in [3] ([IL] 0.5 M, [Protein] 221 mg/mL), 46.5 ± 1.7 cP; in [3] (setting [10]), 82.0 ± 3.0 cP; in series [4] ([IL] 0.4 M, [Protein] 232 mg/mL), 35.2 ± 5.0 cP.

The molecule `Cl.N=C(N)NCCC[C@H](N)C(=O)O` [Arg HCl, Arginine-HCl, reference compound] displayed a Viscosity in series [4] ([IL] 0.25 M, [Protein] 228 mg/mL) of 37 ± 0.1 cP.

On to “vedolizumab: mAb being developed by Millennium Pharmaceuticals for ulcerative colitis and Crohn's disease”, for which the “Patients achieving clinical remission” value in [5] is listed as ~60%.

On to `CCCCn1cc[n+](CCCCS(=O)(=O)[O-])c1` [BIM, 4-(3-butyl-1-imidazolio)-1-butane sulfonate], for which the Viscosity was determined as 43.9 ± 1.6 cP in series [6] (0.40M BIM, [Protein] 191 ± 2 mg/mL); 65.4 ± 0.4 cP in series [6] (0.40M BIM, [Protein] 203 ± 4 mg/mL); 75.4 ± 1.0 cP in series [6] (0.40M BIM, [Protein] 213 ± 4 mg/mL); 83.9 ± 0.8 cP in series [6] (0.50M BIM, [Protein] 213 ± 4 mg/mL); 43.8 ± 0.4 cP in series [2] ([IL] 0.40 M, [Protein] 223 mg/mL); 71.2 ± 2.9 cP in [7] (0.50M BIM, REMICADE ® 222 ± 6 mg/mL, 25° C., pH 7). Moreover, the Viscosity turned out to be 51.1 ± 3.7 cP in [8] (VECTIBIX ® 233 ± 4 mg/mL); 170 ± 2 cP in [8] (VECTIBIX ® 291 ± 3 mg/mL); 86.7 ± 2.1 cP in series [9] ([BIM] 0.4 M, [biosimilar ERBITUX ®] 270 mg/mL); 75.0 ± 0.3 cP in series [9] ([BIM] 0.5 M, [biosimilar ERBITUX ®] 257 mg/mL); 148 ± 2 cP in series [9] ([BIM] 0.75 M, [biosimilar ERBITUX ®] 263 mg/mL); 145 ± 2 cP in series [9] ([BIM] 1.0 M, [biosimilar ERBITUX ®] 279 mg/mL). Also, the Viscosity in series [9] ([BIM] […], [biosimilar ERBITUX ®] 267 mg/mL) is listed as 347 ± 5 cP; in series [3] ([IL] 0.2 M, [Protein] 215 mg/mL), 61.8 ± 0.3 cP; in series [3] ([IL] 0.4 M, [Protein] 215 mg/mL) it was 47.3 ± 2.3 cP; in series [3] ([IL] 0.5 M, [Protein] 215 mg/mL) it was 41.9 ± 0.8 cP; in series [4] ([IL] 0.4 M, [Protein] 234 mg/mL), 43.6 ± 1.1 cP. The Viscosity reduction result in [7] (0.50 M BIM, maximum over the proteins examined (REMICADE and VECTIBIX)) was “up to 22 fold”. In series [9] (various concentrations of BIM, 0.3-[…]), the “Dependence of viscosity-lowering effect on BIM concentration” value is reported as “dose dependent manner up to about 0.50 M”. The “Observed consequences of injections compared with saline” value in the series with Sprague-Dawley rats (0.5 mL of 0.25 M BIM subcutaneously vs phosphate-buffered saline, throughout the study) is “macroscopically similar”. The “Irritation at injection sites” value with Sprague-Dawley rats (0.5 mL of 0.25 M BIM subcutaneously, 1-3 daily injections) was “no irritation to slight irritation”. Also, the “Edema scores (Draize) at injection sites” value with Sprague-Dawley rats (0.5 mL of 0.25 M BIM subcutaneously, 1-3 daily injections, various time points) was 0-2. The “Microscopic examination of injection sites” value in the series on Sprague-Dawley rats (0.5 mL of 0.25 M BIM subcutaneously, no longer evident by day 4) is recorded as “very minor, clinically insignificant, irritative effect”.

On to `CCCC[N+]1(C)CCCC1.[Cl-]` [BMP Chloride, 1-butyl-1-methylpyrrolidinium chloride], for which the Viscosity in series [2] ([IL] 0.40 M, [Protein] 210 mg/mL) stood at 55.6 ± 2.0 cP; in [2] ([IL] 0.40 M, [Protein] 244 mg/mL), 99.2 ± 2.2 cP; in series [3] ([IL] 0.4 M, [Protein] 227 mg/mL), 63.0 ± 8.4 cP; in [3] (setting [10]) it was 60.8 ± 0.1 cP; in series [4] ([IL] 0.4 M, [Protein] 249 mg/mL), 42.7 ± 1.9 cP.

With “4-ethyl-4-methylmorpholinium methylcarbonate [EMMC]”, the Viscosity reduction is recorded as ~3 fold in series [2] (0.10 M EMMC) and “up to 7 fold” in series [4] (0.10 M EMMC). The Viscosity is 60.2 ± 4.3 cP in series [2] ([IL] 0.10 M, [Protein] 253 mg/mL); 38.7 ± 0.3 cP in [3] ([IL] 0.4 M, [Protein] 217 mg/mL); 24.7 ± 0.3 cP in series [4] ([IL] 0.1 M, [Protein] 232 mg/mL).
